Experimental data published in US20240383869A1, “ARYLACETYL INHIBITORS OF TG2 AND USES THEREOF” (UNIVERSITY OF OTTAWA, priority 2021, published 2024).
Where two headings read alike, the source gives them in different places. Where a SMILES comes first, the peptide text is derived from it. [ ]: non-standard residue; d: D form. The star is where a group is joined. DON = [N-]=[N+]=CC(=O)CC[C@H](N)C(=O)O; Cbz = O=C(OCc1ccccc1)*

Experiments:
[1] = test system: glioblastoma multiforme (GBM) cell lines; details: Zhang et al. 2013; cited from earlier work
hTG2 [2] = molecular target: T1, hTG2 (Homo sapiens, UniProt P21980); assay: biochemical; details: fit to saturation kinetics model, 25° C., pH 6.95, 100 μM AL5; for Ki: read-out: KI (converted); for kinact: read-out: kinact (converted); for kinact/KI: read-out: kinact/KI (converted)
T1 sequence (P21980 1-687): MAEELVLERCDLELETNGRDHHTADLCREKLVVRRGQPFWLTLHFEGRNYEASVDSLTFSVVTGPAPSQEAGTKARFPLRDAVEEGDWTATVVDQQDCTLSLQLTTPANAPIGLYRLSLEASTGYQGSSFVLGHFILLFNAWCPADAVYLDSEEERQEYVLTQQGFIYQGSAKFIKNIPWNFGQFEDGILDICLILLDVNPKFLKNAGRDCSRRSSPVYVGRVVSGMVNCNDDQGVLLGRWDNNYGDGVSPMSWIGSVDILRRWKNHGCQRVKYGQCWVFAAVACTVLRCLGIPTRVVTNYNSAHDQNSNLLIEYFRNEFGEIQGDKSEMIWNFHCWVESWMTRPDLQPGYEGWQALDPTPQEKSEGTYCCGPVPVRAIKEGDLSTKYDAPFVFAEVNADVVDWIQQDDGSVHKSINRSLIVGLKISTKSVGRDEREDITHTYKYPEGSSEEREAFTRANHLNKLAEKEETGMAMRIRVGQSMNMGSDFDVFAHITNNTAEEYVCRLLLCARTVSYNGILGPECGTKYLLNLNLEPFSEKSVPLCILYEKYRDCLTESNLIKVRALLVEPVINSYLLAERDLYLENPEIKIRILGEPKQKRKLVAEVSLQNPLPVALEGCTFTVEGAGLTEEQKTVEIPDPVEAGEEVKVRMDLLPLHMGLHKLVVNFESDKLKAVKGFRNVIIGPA
Description: The ability of the compounds to inhibit TG2 transamidase activity and the kinetics of TG2 inhibition were investigated using a colorimetric activity assay, as follows:
Colorimetric transamidase activity assay. The activities of hTG1, hTG2 and hTG6 were measured via a colorimetric assay using the chromogenic substrate Cbz-Glu(γ-p-nitrophenyl ester)Gly (AL5), as described (Leblanc, A. et al., “Kinetic studies of guinea pig liver transglutaminase reveal a general-base-catalyzed deacylation mechanism.” Biochemistry 2001, 40 (28), 8335-8342). Assays were conducted at 25° C. in 50 mM MOPS buffer (pH 6.95) containing 7.5 mM CaCl2. […] The substrate AL5 was prepared in as a stock solution in DMSO such that the final concentration of this co-solvent was constant at 2.5% v/v. Stock solutions of the inhibitors were made in water ranging in concentration from 100-500 μM. The reaction was initiated with the addition of enzyme, 0.10 μM hTG1, 0.25 μM hTG2 (4.6 mU/mL) or 0.32 μM hTG6. Formation of hydrolysis product, p-nitrophenolate (pNP), was monitored at 405 nm in a polystyrene 96-well microplate using a BioTek Synergy 4 plate reader. The observed first-order rate constants of inactivation (kobs) were determined via non-linear regression fit to a mono-exponential model (Eqn 1) of absorbance versus time curves. These rate constants (kobs) were in turn fit to a saturation kinetics model (Eqn 2), by non-linear regression, providing the kinetic parameters kinact and KI, as previously described by Stone and Hofsteenge (Stone, S. R. and Hofsteenge, J., “Specificity of activated human protein C.” Biochem. J. 1985, 230 (2), 497-502). […] Experiments were completed in triplicate at minimum.
Fitting of this time-dependent inactivation to a monoexponential equation gave first-order rate constants, kobs. […] In some cases, the kinetic data were fitted to a linear double reciprocal equation.

SCC-13 cells [3] = assay: ECS cell invasion through Matrigel (Transwell); format: cell-based; details: 0-100 μM inhibitor, 18 h, read-out: EC50 for inhibition of ECS invasion
Description: One well-known property of tumour-initiating cells associated with cancer metastasis is the enhanced ability to invade Matrigel (collagen). For example, it has been shown that epidermal cancer stem (ECS) cells invade Matrigel more efficiently than non-stem cancer cells, and that these properties are associated with enhanced tumour formation (Adhikary, G. et al., PLoS ONE 2013, 8, e84324. https://doi.org/10.1371/journal.pone.0084324). We have shown previously that ˜20 μM of NC9 and 3.9 μM of VA4 can reduce ECS cell invasion through Matrigel by ˜50% relative to vehicle-treated cells (Akbar, A. et al., J. Med. Chem. 2017, 60, 7910-7927. https://doi.org/10.1021/acs.jmedchem.7b01070; Fisher, M. L. et al., Oncotarget 2015, 6, 20525-20539. https://doi.org/10.18632/oncotarget.3890).
Materials and Methods for cell invasion data. To measure cell invasion, Matrigel (Corning, catalogue no. 354234) was diluted to 250 μg/mL and 120 μL was added to the upper chambers of a Transwell plate (Corning, no. 353097, 1-cm diameter, 8-μm pore size) and allowed to solidify. SCC-13 cells were suspended in spheroid medium (Fisher, M. L. et al., Cancer Res. 2016, 76, 7265-7275. https://doi.org/10.1158/0008-5472.can-16-2032; Adhikary, G. et al., Carcinogenesis 2015, 36, 800-810. https://doi.org/10.1093/carcin/bgv064) containing 1% foetal calf serum (FCS), and 20,000 cells were plated into each upper chamber atop the Matrigel. The bottom chamber contained spheroid medium supplemented with 10% FCS and 0-100 μM of inhibitor. After incubation for 18 h in a 37° C. incubator, cells in the top chamber were removed with a swab and cells on the lower surface of the membrane were fixed with 4% paraformaldehyde and the nuclei were stained with 4′,6-diamidino-2-phenylindole. Cell number was counted in multiple fields (n=4) using a fluorescence microscope, normalized with respect to the number counted in the presence of vehicle only, and expressed as mean±standard deviation.

[4] = test system: TG2 relative to other human transglutaminases; details: shown previously (Akbar et al. 2017); cited from earlier work
SCC-13 cells [5] = details: shown previously; read-out: concentration reducing ECS cell invasion through Matrigel by ~50% relative to vehicle-treated cells; cited from earlier work
hTG2 [6] = molecular target: T1, hTG2; assay: In vitro GTP binding assay (BODIPY GTP-γ-S fluorescence); details: inhibitor 2×KI, 30 minutes at 25° C.; 3 μM BODIPY GTP-γ-S
Description: Previously we proposed a mechanism of action for the NC9, VA4 and AA9 inhibitors based on their ability to react covalently with the open conformation of TG2, locking the enzyme in that conformation and thereby abolishing the enzyme's ability to bind GTP and act as a G-protein. […] We used the same in vitro GTP binding assay to measure the ability of representative phenylacetyl inhibitors 67 and 72 to abolish GTP binding, as follows:
In vitro GTP binding assay. GTP binding was measured using a method similar to that reported previously (McEwen, D. P. et al., “Fluorescent BODIPY-GTP analogs: Real-time measurement of nucleotide binding to G proteins.” Anal. Biochem. 2001, 291 (1), 109-117). […] The buffer was then exchanged to 100 mM MOPS (pH=7.0), 1 mM EGTA and 5 mM MgCl2 to remove calcium via dialysis using a 10-kDa molecular weight cut off membrane. The fluorescent GTP analog was added to give a final concentration of 3.0 μM and fluorescence was measured on a microplate reader after 10 minutes of incubation (Ex/Em: 490/520 nm).

hTG2 [7] = molecular target: T1, hTG2; details: shown previously; cited from earlier work

With COC(=O)[C@H](CC(C)C)NC(=O)[C@@H]1CCCN1C(=O)[C@@H](NC(=O)[C@H](CCC(=O)C=[N+]=[N-])NC(=O)OCc1ccccc1)C(C)C [Z-DON] (Cbz-[DON]VPL-OMe) as the compound, how does the “proliferation of GBM cell lines” value [1] read?
Its value is “reduce proliferation in two out of three”.

With C=CC(=O)NCCCC[C@H](NC(=O)Cc1ccccc1Br)C(=O)N1CCN(C(=O)c2cccc3ccccc23)CC1 [Inhibitor 77, (S)-N-(6-(4-(1-naphthoyl)piperazin-1-yl)-5-(2-(2-bromophenyl)acetamido)-6-oxohexyl)acrylamide] as the compound, how does the Ki (hTG2 [2]) read?
The Ki was 9.8 ± 1.5 µM.

And the kinact (hTG2 [2])?
The kinact was 0.0517 s⁻¹.

What about the kinact/KI (hTG2 [2]) of the same compound?
Its kinact/KI is 5170 M⁻¹ s⁻¹.

What about the EC50 (SCC-13 cells [3]) of the same compound?
Its EC50 is 94 ± 2 µM.

With C=CC(=O)NCCCC[C@H](NC(=O)OCc1ccccc1)C(=O)NCCOCCOCCNS(=O)(=O)c1cccc2c(N(C)C)cccc12 [NC9] as the compound, how does the “selectivity for TG2 compared to the other major transglutaminase isozymes” value [4] read?
Its value is “good selectivity for TG2”.

And the EC50 (SCC-13 cells [5])?
The EC50 was ~20 µM.

With C=CC(=O)NCCCC[C@H](NC(=O)Cc1ccccc1)C(=O)N1CCN(C(=O)c2cccc3ccccc23)CC1 [Inhibitor 67, (S)-N-(6-(4-(1-naphthoyl)piperazin-1-yl)-6-oxo-5-(2-phenylacetamido)hexyl)acrylamide] as the compound, how does the “inhibition of GTP binding of hTG2” value (hTG2 [6]) read?
The value was “abolished the GTP binding ability”.

With CN(C)c1cccc2c(S(=O)(=O)NCCCCCN)cccc12 [monodansylcadaverine] as the compound, how does the “proliferation of GBM cell lines” value [1] read?
The value was “reduce proliferation in two out of three”.

Which results are given for C=CC(=O)NCCCC[C@H](NC(=O)Cc1ccccc1Cl)C(=O)N1CCN(C(=O)c2cccc3ccccc23)CC1 [Inhibitor 76, (S)-N-(6-(4-(1-naphthoyl)piperazin-1-yl)-5-(2-(2-chlorophenyl)acetamido)-6-oxohexyl)acrylamide]?
Ki (hTG2 [2]): 18 ± 6.9 µM; kinact (hTG2 [2]): 0.0883 s⁻¹; kinact/KI (hTG2 [2]): 4920 M⁻¹ s⁻¹; EC50 (SCC-13 cells [3]): 92 ± 2 µM

For C=CC(=O)NCCCC[C@H](NC(=O)OCc1ccccc1)C(=O)N1CCN(S(=O)(=O)c2cccc3c(N(C)C)cccc23)CC1 [VA4], which “suppression of TG2 binding of GTP-γ-S-FL BODIPY” value (hTG2 [7]) is on record?
Its value is “suppress the ability of TG2 to bind GTP-γ-S-FL BODIPY”.

And the “selectivity for TG2 compared to the other major transglutaminase isozymes” value [4]?
Its value is “good selectivity for TG2”.

And the EC50 (SCC-13 cells [5])?
The EC50 was 3.9 µM.

For C=CC(=O)NCCCC[C@H](NC(=O)Cc1ccc(Cl)c(Cl)c1)C(=O)N1CCN(C(=O)c2cccc3ccccc23)CC1 [Inhibitor 79, (S)-N-(6-(4-(1-naphthoyl)piperazin-1-yl)-5-(2-(3,4-dichlorophenyl)acetamido)-6-oxohexyl)acrylamide], which Ki (hTG2 [2]) is on record?
Its Ki is 0.58 ± 0.3 µM.

What about the kinact (hTG2 [2]) of the same compound?
Its kinact is 0.00133 s⁻¹.

What about the kinact/KI (hTG2 [2]) of the same compound?
The kinact/KI was 2180 M⁻¹ s⁻¹.
